According to article PMC8443589, “Modelling human liver fibrosis in the context of non-alcoholic steatohepatitis using a microphysiological system” (Communications Biology, 2021):

Tested on: liver MPS NASH model (PHH, KC and HSC co-cultures)
Test: Cue study: RNAseq transcriptomic profile, enriched pathways
Assay type: cell-based, human
Details: GO term enrichment and cluster analysis, 14 days
Experimental: Fig. 4 Systems biology interrogation of liver MPS NASH model to determine physiologically relevant cues that promote transcriptional changes to mimic advanced NASH disease state. […]
The MPS LC12 plates consists of 12 individual bioreactors that contain pneumatically driven micro-pumps to recirculate cell culture medium through a collagen-coated scaffold. […] Microtissues were then cultured in either HEP-Lean or HEP-Fat medium, both media’s are proprietary to CN Bio Innovations Ltd. The HEP-Fat medium is a derivative of the HEP-LEAN medium and contains a mixture of saturated and unsaturated FFAs, as well as physiologically relevant quantities of insulin and sugars. […]
Prior to RNA-seq integrity and quantity of RNA were assessed by Fragment Analyzer high sensitivity RNA kit (Agilent Technologies, USA). […] Quality and quantity of libraries were assessed by Fragment Analyzer standard sensitivity NGS kit (Agilent Technologies, USA). […] The sample pools were quantified with a Qubit Fluorometer (ThermoFisher Scientific, USA) using the dsDNA HS kit (ThermoFisher Scientific, USA), further diluted and sequenced to >13 M paired reads/sample on NextSeq500 (Illumina, USA) with PE 75 base pair (bp) read length setting.
The sequencing data were demultiplexed using Illumina bcl2fastq2-v2.16. The quality of the reads was assessed using FastQC (www.bioinformatics.babraham.ac.uk/projects/fastqc). […]

TGFβ: recombinant TGF beta 1 protein (Abcam), 1 ng/ml cue
enriched pathways / gene clusters induced: induced a wide range of clusters associated with collagen formation and matrix reorganisation
